System: SUM149PT spheroids with HUVEC/MSC, viability
Experiment: Anticancer human tumor SUM149PT cell line growth inhibition [GQUAD];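 also: spheroids exposed to drugs for seven days before readout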;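 as to viability, T/C: percent viability relative to DMSO vehicle control taken as 100%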
Conditions: for IC50: curve of first compound; for viability, T/C: stronger effect = lower value
Excerpt: DNA G-quadruplex Stabilizer Agents in Combinations in Complex Spheroids
A high-throughput screen of multi-cell type tumor spheroids was designed to identify active combinations of DNA G-quadruplex stabilizer agents and targeted small molecules. Complex spheroids include a stromal component modeled by human endothelial cells (HUVEC) and fibroblasts modeled by human mesenchymal stem cells (MSCs). The concentration ranges selected for each drug and investigational agent were based upon clinically achievable concentrations if the clinical Cmax of the agent was known.
Compounds. The drugs and investigational agents: pidnarulex (CX-5461; NSC782164), APTO-253 (NSC789042), BRACO-19 (NSC847499), peposertib (NSC802822), ceralasertib (NSC780249), elimusertib (NSC800525), camonsertib (NSC841442), AZD-1390 (NSC803789), olaparib (NSC753686), talazoparib (NSC767125), ART-558 (NSC835418), sotorasib (NSC818433), MRTX-1133 (NSC836407), SN-38 (NSC673596), topotecan (NSC609699), etoposide (NSC141540), doxorubicin (NSC123127), gemcitabine (NSC613327), 5-fluorouracil (NSC19893), paclitaxel (NSC125973), vemurafenib (NSC761431), panobinostat (NSC761190), R-306465 (JNJ-16241199; NSC773264), adavosertib (NSC754352), TP-3654 (NSC805149), carboplatin (NSC241240), KSQ-4279 (NSC840948), and staurosporine (NSC755774) were obtained from the National Cancer Institute (NCI) Developmental Therapeutics Program Chemical Repository (34). The FDA-approved anticancer drug set is available from the NCI Developmental Therapeutics Program. […] The stock solutions were prepared in dimethyl sulfoxide (DMSO, Sigma-Aldrich, St. Louis, MO, cat. D2650) at 800-fold the tested concentration and stored at -70 degrees C prior to their use. All drugs and investigational agents were tested over a range starting from a high concentration at or near the clinical Cmax and decreasing in half-log increments. If the clinical Cmax for an agent had not been determined, the highest concentration tested was 10 microM.
2.3 Cell Culture. All cells were maintained in an incubator at 37 degrees C and 5% CO2 with 95% humidity. The PDC lines were cultured according to standard operating procedures established by the NCI PDMR. All PDCs were thawed and cultured in Matrigel-coated flasks prepared with a working solution of 1X Ham's F-12 nutrient mix, without supplementation (Invitrogen, cat. 11765054), 100 U/mL penicillin-streptomycin (Invitrogen, cat. 15140122), and 2.5% Matrigel (Corning Inc., cat. 354248) for the first three passages. The 857933-349-R-J2-PDC line was cultured in 6C/Colon 1B media, which includes advanced DMEM/F-12 (Thermo Fisher Scientific, cat. 12634028), 10 mM HEPES (Thermo Fisher Scientific, cat. 15630080), 1X GlutaMAX supplement (Thermo Fisher Scientific, cat. 35050061), 0.1 mg/mL primocin (InvivoGen, cat. ant-pm-2), 10% defined fetal bovine serum, heat inactivated (HyClone Laboratories Inc., cat. SH30070.03HI), 50% L-WRN conditioned media (ATCC, cat. CRL-3276), 1.25 mM N-Acetyl-L-cysteine (Sigma-Aldrich, cat. A9165), 10 mM nicotinamide (Sigma-Aldrich, cat. N0636), 1X B-27 supplement (Thermo Fisher Scientific, cat. 17504044), 1X N-2 supplement (Thermo Fisher Scientific, cat. 17502048), 10 microM Y-27632 dihydrochloride (Tocris Bioscience, cat. 1254), and 50 ng/mL human EGF recombinant protein (Thermo Fisher Scientific, cat. PHG0311). The 485176-168-R4-J1-PDC line was cultured in Panc media, which includes all 6C/Colon 1B media components plus 100 ng/mL human FGF-10 (Thermo Fisher Scientific, cat. 100-26), 500 nM SB-431542 (Selleckchem, cat. S1067), and gastrin (Tocris, cat. 3006).
[…]

[1] = second compound 0.0316 µM, first compound 0.0316 µM
[2] = second compound 0.0316 µM, first compound 0.1 µM
[3] = second compound 0.0316 µM, first compound 0.316 µM
[4] = second compound 0.0316 µM, first compound 1 µM
[5] = second compound 0.0316 µM, first compound 3.16 µM
[6] = second compound 0.0316 µM, first compound 10 µM
[7] = second compound 0.1 µM, first compound 0.0316 µM
[8] = second compound 0.1 µM, first compound 0.1 µM
[9] = second compound 0.1 µM, first compound 0.316 µM
[10] = second compound 0.1 µM, first compound 1 µM
[11] = second compound 0.1 µM, first compound 3.16 µM
[12] = second compound 0.1 µM, first compound 10 µM
[13] = second compound 0.316 µM, first compound 0.0316 µM
[14] = second compound 0.316 µM, first compound 0.1 µM
[15] = second compound 0.316 µM, first compound 0.316 µM
[16] = second compound 0.316 µM, first compound 1 µM
[17] = second compound 0.316 µM, first compound 3.16 µM
[18] = second compound 0.316 µM, first compound 10 µM
[19] = second compound 1 µM, first compound 0.0316 µM
[20] = second compound 1 µM, first compound 0.1 µM
[21] = second compound 1 µM, first compound 0.316 µM
[22] = second compound 1 µM, first compound 1 µM
[23] = second compound 1 µM, first compound 3.16 µM
[24] = second compound 1 µM, first compound 10 µM
[25] = second compound 3.16 µM, first compound 0.0316 µM
[26] = second compound 3.16 µM, first compound 0.1 µM
[27] = second compound 3.16 µM, first compound 0.316 µM
[28] = second compound 3.16 µM, first compound 1 µM
[29] = second compound 3.16 µM, first compound 3.16 µM
[30] = second compound 3.16 µM, first compound 10 µM
[31] = second compound 10 µM, first compound 0.0316 µM
[32] = second compound 10 µM, first compound 0.1 µM
[33] = second compound 10 µM, first compound 0.316 µM
[34] = second compound 10 µM, first compound 1 µM
[35] = second compound 10 µM, first compound 3.16 µM
[36] = second compound 10 µM, first compound 10 µM

With CC1COCCN1c1cc(C2(S(C)(=N)=O)CC2)nc(-c2ccnc3[nH]ccc23)n1 (stereo unspecified) + CN(C)c1ccc(Nc2c3ccc(NC(=O)CCN4CCCC4)cc3nc3cc(NC(=O)CCN4CCCC4)ccc23)cc1 the IC50 (second compound 0.0316 µM) was 2.65 µM, the IC50 (second compound 0.1 µM) was 2.76 µM and the IC50 (second compound 0.316 µM) was 2.31 µM. It also gave an IC50 (second compound 1 µM) of 2.23 µM, an IC50 (second compound 3.16 µM) of 1.9 µM and an IC50 (second compound 10 µM) of 1.92 µM. For the same compound, the viability, T/C [1] was 106%, the viability, T/C [2] was 91.5% and the viability, T/C [3] was 97.2%. The viability, T/C [4] was 80.9%, the viability, T/C [5] was 44.2% and the viability, T/C [6] was 29.4%. The viability, T/C [7] was 97.8%, the viability, T/C [8] was 103% and the viability, T/C [9] was 81.5%. The viability, T/C [10] was 89.4%, the viability, T/C [11] was 44.7% and the viability, T/C [12] was 25.2%. The viability, T/C [13] was 90.3%, the viability, T/C [14] was 90.4% and the viability, T/C [15] was 83.2%. It also gave a viability, T/C [16] of 74.7%, a viability, T/C [17] of 40.4% and a viability, T/C [18] of 29.6%. For the same compound, the viability, T/C [19] was 90.4%, the viability, T/C [20] was 82.7% and the viability, T/C [21] was 77.5%. The viability, T/C [22] was 69.5%, the viability, T/C [23] was 41.1% and the viability, T/C [24] was 22.5%. For the same compound, the viability, T/C [25] was 84.2%, the viability, T/C [26] was 90.7% and the viability, T/C [27] was 86.1%. It also gave a viability, T/C [28] of 69.7%, a viability, T/C [29] of 34.3% and a viability, T/C [30] of 23.4%. It also gave a viability, T/C [31] of 95.8%, a viability, T/C [32] of 81.4% and a viability, T/C [33] of 88.6%. The viability, T/C [34] was 67%, the viability, T/C [35] was 36.9% and the viability, T/C [36] was 24.9%.

Work on O=C(NO)c1cnc(N2CCN(S(=O)(=O)c3ccc4ccccc4c3)CC2)nc1 + CN(C)c1ccc(Nc2c3ccc(NC(=O)CCN4CCCC4)cc3nc3cc(NC(=O)CCN4CCCC4)ccc23)cc1 yielded an IC50 (second compound 0.0316 µM) of 0.325 µM, an IC50 (second compound 0.1 µM) of 0.326 µM and an IC50 (second compound 0.316 µM) of 0.322 µM. For the same compound, the IC50 (second compound 1 µM) was 0.314 µM, the IC50 (second compound 3.16 µM) was 0.335 µM and the IC50 (second compound 10 µM) was 0.261 µM. For the same compound, the viability, T/C [1] was 108%, the viability, T/C [2] was 89.4% and the viability, T/C [3] was 54.2%. For the same compound, the viability, T/C [4] was 0.96%, the viability, T/C [5] was 1.31% and the viability, T/C [6] was 3.07%. The viability, T/C [7] was 116%, the viability, T/C [8] was 98.7% and the viability, T/C [9] was 54%. The viability, T/C [10] was 0.82%, the viability, T/C [11] was 1.32% and the viability, T/C [12] was 2.31%. It also gave a viability, T/C [13] of 104%, a viability, T/C [14] of 98.1% and a viability, T/C [15] of 51%. For the same compound, the viability, T/C [16] was 0.47%, the viability, T/C [17] was 1.57% and the viability, T/C [18] was 1.8%. It also gave a viability, T/C [19] of 93%, a viability, T/C [20] of 96% and a viability, T/C [21] of 49.7%. The viability, T/C [22] was 0.55%, the viability, T/C [23] was 2.23% and the viability, T/C [24] was 1.4%. It also gave a viability, T/C [25] of 86.6%, a viability, T/C [26] of 90.9% and a viability, T/C [27] of 52.6%. It also gave a viability, T/C [28] of 0.33%, a viability, T/C [29] of 0.17% and a viability, T/C [30] of 1.59%. The viability, T/C [31] was 87.6%, the viability, T/C [32] was 70.2% and the viability, T/C [33] was 47.4%. It also gave a viability, T/C [34] of 0.97%, a viability, T/C [35] of 2.45% and a viability, T/C [36] of 1.01%.

For CC1COCCN1c1cc(-c2ccnn2C)c2ccnc(-c3ccn[nH]3)c2n1 (stereo unspecified) + CN(C)c1ccc(Nc2c3ccc(NC(=O)CCN4CCCC4)cc3nc3cc(NC(=O)CCN4CCCC4)ccc23)cc1, the IC50 (second compound 0.0316 µM) was 0.0933 µM, the IC50 (second compound 0.1 µM) was 0.0927 µM and the IC50 (second compound 0.316 µM) was 0.0913 µM. It also gave an IC50 (second compound 1 µM) of 0.0897 µM, an IC50 (second compound 3.16 µM) of 0.0884 µM and an IC50 (second compound 10 µM) of 0.0657 µM. It also gave a viability, T/C [1] of 96.3%, a viability, T/C [2] of 46.9% and a viability, T/C [3] of 29.1%. The viability, T/C [4] was 23.2%, the viability, T/C [5] was 38.2% and the viability, T/C [6] was 28%. It also gave a viability, T/C [7] of 87.8%, a viability, T/C [8] of 47.3% and a viability, T/C [9] of 29.6%. For the same compound, the viability, T/C [10] was 29.4%, the viability, T/C [11] was 30% and the viability, T/C [12] was 36.1%. The viability, T/C [13] was 87.5%, the viability, T/C [14] was 46.8% and the viability, T/C [15] was 26%. It also gave a viability, T/C [16] of 26.5%, a viability, T/C [17] of 28.1% and a viability, T/C [18] of 29.2%. For the same compound, the viability, T/C [19] was 82.6%, the viability, T/C [20] was 46.6% and the viability, T/C [21] was 26.4%. It also gave a viability, T/C [22] of 23.7%, a viability, T/C [23] of 26.8% and a viability, T/C [24] of 29.4%. For the same compound, the viability, T/C [25] was 79%, the viability, T/C [26] was 46.5% and the viability, T/C [27] was 20.7%. It also gave a viability, T/C [28] of 23.5%, a viability, T/C [29] of 25.6% and a viability, T/C [30] of 24.2%. For the same compound, the viability, T/C [31] was 69.9%, the viability, T/C [32] was 38% and the viability, T/C [33] was 28.9%. For the same compound, the viability, T/C [34] was 24.9%, the viability, T/C [35] was 25.4% and the viability, T/C [36] was 21.9%.
